Measurements from patent US20250340569A1, “INHIBITORS OF KIF18A AND USES THEREOF” (Insilico Medicine IP Limited, priority 2023, published 2025).
pIC50: −log10 of the molar value.

What was measured:
OVCAR-3 = assay: OVCAR3 CTG assay; type: cell-based; conditions: Homo sapiens, OVCAR-3, 144 h; CellTiter-Glo, 6 days incubation
In short: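 OVCAR-3 cells plated overnight, then exposed to test compounds for 6 days at 37 °C, 5% CO2; 2 mM DMSO working stock diluted 200-fold overall, staurosporine as control. Viability read by CellTiter-Glo luminescence after 10 min lysis and 10 min room-temperature stabilisation.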

Kif18A = molecular target: T1, Kif18A (Homo sapiens, UniProt Q8NI77); assay: KIF18A assay (ADP Glo); conditions: biochemical assay, ADP Glo luminescence
T1 sequence (Q8NI77 1-898): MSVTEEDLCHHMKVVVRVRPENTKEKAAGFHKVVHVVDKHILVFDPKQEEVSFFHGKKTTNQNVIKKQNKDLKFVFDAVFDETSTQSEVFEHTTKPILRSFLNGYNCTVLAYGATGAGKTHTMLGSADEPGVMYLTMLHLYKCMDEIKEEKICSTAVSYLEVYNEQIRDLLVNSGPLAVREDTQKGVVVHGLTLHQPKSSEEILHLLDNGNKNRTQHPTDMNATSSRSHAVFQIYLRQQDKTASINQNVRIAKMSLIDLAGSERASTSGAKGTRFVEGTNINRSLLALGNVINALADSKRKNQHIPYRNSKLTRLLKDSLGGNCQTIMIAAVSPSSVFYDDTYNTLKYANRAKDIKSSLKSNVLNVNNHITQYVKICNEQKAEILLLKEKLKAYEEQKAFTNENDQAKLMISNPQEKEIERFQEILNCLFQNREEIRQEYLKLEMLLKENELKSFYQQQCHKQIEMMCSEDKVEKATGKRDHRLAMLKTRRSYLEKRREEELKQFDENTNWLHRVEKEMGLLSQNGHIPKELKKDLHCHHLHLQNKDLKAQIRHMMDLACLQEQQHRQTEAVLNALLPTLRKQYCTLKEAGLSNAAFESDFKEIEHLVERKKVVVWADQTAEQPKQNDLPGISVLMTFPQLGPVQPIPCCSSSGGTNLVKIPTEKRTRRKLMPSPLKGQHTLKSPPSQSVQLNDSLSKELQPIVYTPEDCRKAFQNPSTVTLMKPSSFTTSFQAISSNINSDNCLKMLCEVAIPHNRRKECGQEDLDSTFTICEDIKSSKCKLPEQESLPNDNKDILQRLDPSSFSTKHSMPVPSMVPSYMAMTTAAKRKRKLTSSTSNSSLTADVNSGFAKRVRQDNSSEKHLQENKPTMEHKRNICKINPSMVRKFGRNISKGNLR
Procedure: The KIF18A assay was performed as follows:
1.1. Prepared 1× Kinase Buffer
• a) Added 40 μL test compound to 384-well dilution plate • b) Diluted compound 1:3 in succession in DMSO for each column for 10 pts • c) Transferred 0.1 μL diluted compound solution to 384 assay plate using Echo, each column containing 2 replicates • d) Added 5 μL enzyme working solution to 384-well assay plate, centrifuge 1000 RPM for 1 min e) Incubated at 25° C. for 15 min • f) Added 5 μL ATP working solution to initiate reaction • g) Incubated at 25° C. for 60 min • h) Added 10 μL ADP Glo reagent, centrifuge 1000 RPM for 1 min • i) Incubated at 25° C. for 60 min • j) Added 20 μL kinase detection reagent, centrifuge 1000 RPM for 1 min • k) Incubated at 25° C. for 60 min • l) Read Luminescence Signal on Envision 2104 plate reader.
1.3. Data Analysis—Calculated IC50 and Plot Dose-Response Curve of Compounds:
Calculated IC50 by fitting % Inhibition values and log of compound concentrations to nonlinear regression (dose response−variable slope) with GraphPad 6.0.
[formula] • X: log of inhibitor concentration; Y: % Inhibition

Structure (SMILES) | pIC50 (OVCAR-3) | pIC50 (Kif18A)
Cc1cc2nc(n1)NCCCCOCC1(C(F)(F)F)CCN(CC1)c1cc(NS(=O)(=O)CCO)ccc1C(=O)N2 [EX59] | 7.00 to 8.00 | 7.00 to 8.00
Cc1cc2nc(n1)NC[C@H](C)COCC1(C(F)(F)F)CCN(CC1)c1cc(NS(=O)(=O)CCO)ccc1C(=O)N2 [EX36-A] | 7.00 to 8.00 | 7.00 to 8.00
Cc1cc2nc(n1)N(CC(F)(F)F)CCCOCC1(C)CCN(CC1)c1cc(NS(=O)(=O)CCO)ccc1C(=O)N2 [EX26] | 5.00 to 6.00 | 7.00 to 8.00
CN1CCCOCC2(C)CCN(CC2)c2cc(NS(=O)(=O)CCO)ccc2C(=O)Nc2cccc(n2)C1=O [EX22] | 6.00 to 7.00 | 6.00 to 7.00
Cc1cc2nc(n1)OCCCOCC1(C)CCN(CC1)c1cc(NS(=O)(=O)CCO)ccc1C(=O)N2 [EX05] | 7.00 to 8.00 | > 8.00
CC12CCN(CC1)c1cc(NS(=O)(=O)CCO)ccc1C(=O)Nc1cccc(n1)OCCCOC2 [EX02] | 7.00 to 8.00 | > 8.00
